Consider seven compounds from patent US7981926B2, “Fluorotaxoids” (Research Foundation of State University of New York, priority 2005, dated 2011).

Experiment [1] deals with MCF7-R (mammary carcinoma cells 250-fold resistant to paclitaxel). Briefly: Tumor growth inhibitory activity (cytotoxicity), SRB method of Skehan et al, MCF7-R. The conditions noted are these: for IC50: Homo sapiens, MCF7R, read-out: IC50 MCF7-R (breast); for R/S (resistance factor): ratio of cytotoxicity against drug-resistant MCF7-R (R) to drug-sensitive MCF7 (S). In kind it is cell-based, human. An excerpt: (§1) The results were obtained according to the methods of Skehan et al (See Skehan et al., J. Nat. Cancer Inst., 82, 1107 (1990)), as more fully described in the Examples. The resistance factor (R/S) shown in the table is a measure of the degree of resistance of a cell line against a taxoid compound. The resistance factor is a ratio of the cytoxicity of a taxoid compound against a drug-resistant cell line (R) as compared to its cytoxicity against a drug-sensitive cell line (S).
(§2) In the tables, lower numbers indicate higher potency (or greater activity). Paclitaxel was used as the standard for comparison. The data represent the mean values of at least three separate experiments.
(§3) Assessment of cell growth inhibition was determined according to the methods of Skehan et al (See Skehan et al., J. Nat. Cancer Inst., 82, 1107 (1990)). Briefly, cells were plated between 400 and 1200 cells/well in 96 well plates and incubated at 37° C. for 15-18 h prior to drug addition to allow attachment of cells. Compounds tested were solubilized in 100% DMSO and further diluted in RPMI-1640 containing 10 mM HEPES. Each cell line was treated with 10 concentrations of compounds (5 log range). After a 72 h incubation, 100 μL of ice-cold 50% TCA was added to each well and incubated for 1 h at 4° C. Plates were then washed 5 times with tap water to remove TCA, low-molecular-weight metabolites and serum proteins. Sulforhodamine B (SRB) (0.4%, 50 μL) was added to each well. Following a 5 minute incubation at room temperature, plates were rinsed 5 times with 0.1% acetic acid and air dried. Bound dye was solubilized with 10 mM Tris Base (pH 10.5) for 5 min on a gyratory shaker. Optical density was measured at 570 nm.
(§4) Data were fit with the Sigmoid-Emax concentration-effect model with non-linear regression, weighted by the reciprocal of the square of the predicted response (see Holford, N. H. G.; Scheiner, L. B., “Understanding the dose-effect relationship: Clinical applications of pharmaco-kinetic-pharmacodynamic models,” Clin. Pharmacokin., 6, 429-453 (1981)). The fitting software was developed by the Roswell Park Cancer Institute with Microsoft FORTRAN, and uses the Marquardt algorithm (see Marquardt, D. W., “An algorithm for least squares estimation of nonlinear parameters,” J. Soc. Ind. Appl. Math., 11, 431-441 (1963)) as adopted by Nash for the non-linear regression (see Nash, J. C., “Compact numerical method for computers: Linear algebra and function minimization,” John Wiley & Sons, New York, 1979).
Background: In SRB staining, fixed cells bind dye roughly in proportion to their protein.

The test system of a further experiment is MCF7 (mammary carcinoma). The experiment is described as follows: Tumor growth inhibitory activity (cytotoxicity), SRB method of Skehan et al, MCF7. In kind it is cell-based, human. The conditions noted are these: Homo sapiens, read-out: IC50 MCF7 (breast).
Excerpt: as §1, §2, §3, §4

Where [2] appears, read: drug-resistant cell line, 72 h drug exposure, SRB, mean of at least three separate experiments.
The mark [3] stands for this setting: MCF7, 72 h drug exposure, SRB, mean of at least three separate experiments.

Read-outs that look alike come from different tables or passages of the source.

Consider `CC(=O)O[C@@]12CO[C@@H]1C[C@H](O)[C@@]1(C)C(=O)[C@H](OC(=O)N(C)C)C3=C(C)[C@@H](OC(=O)[C@H](O)[C@H](C=C(F)F)NC(=O)OC(C)(C)C)C[C@@](O)([C@@H](OC(=O)c4cccc(F)c4)C12)C3(C)C` (stereo partly drawn) [SB-T-12854-2, 3′-Dephenyl-3′-(2,2-difluorovinyl)-2-debenzoyl-2-(3-fluorobenzoyl)-10-dimethylcarbamoyldocetaxel], for which the IC50 (usually the point on the concentration scale where inhibition reaches its midpoint) in experiment [1] (72 h) came to 2.25 nM; in the experiment on MCF7 (mammary carcinoma) (MCF7, 72 h), 0.17 nM. Besides, the “R/S (resistance factor)” value in experiment [1] was 9.4.

In the case of `CC(=O)O[C@@]12CO[C@@H]1C[C@H](O)[C@@]1(C)C(=O)[C@H](OC(=O)N(C)C)C3=C(C)[C@@H](OC(=O)[C@H](O)[C@H](C=C(F)F)NC(=O)OC(C)(C)C)C[C@@](O)([C@@H](OC(=O)c4cccc(N=[N+]=[N-])c4)C12)C3(C)C` (stereo partly drawn) [SB-T-12854-3, 3′-Dephenyl-3′-(2,2-difluorovinyl)-2-debenzoyl-2-(3-azidobenzoyl)-10-dimethylcarbamoyldocetaxel], the IC50 in experiment [1] (72 h) came out at 0.45 nM; with MCF7 (mammary carcinoma) (MCF7, 72 h), 0.13 nM. In addition, in experiment [1], the “R/S (resistance factor)” value came to 3.7.

Regarding `CC(=O)O[C@@]12CO[C@@H]1C[C@H](O)[C@@]1(C)C(=O)[C@H](OC(=O)N(C)C)C3=C(C)[C@@H](OC(=O)[C@H](O)[C@H](C=C(F)F)NC(=O)OC(C)(C)C)C[C@@](O)([C@@H](OC(=O)c4cccc(Cl)c4)C12)C3(C)C` (stereo partly drawn) [SB-T-12854-4, 3′-Dephenyl-3′-(2,2-difluorovinyl)-2-debenzoyl-2-(3-chlorobenzoyl)-10-dimethylcarbamoyldocetaxel], the IC50 in experiment [1] (72 h) stood at 2.6 nM; with MCF7 (mammary carcinoma) (MCF7, 72 h), 0.93 nM. Also, the “R/S (resistance factor)” value in experiment [1] is listed as 2.8.

As to `COC(=O)O[C@H]1C(=O)[C@@]2(C)C([C@H](OC(=O)c3cccc(OC)c3)[C@]3(O)C[C@H](OC(=O)[C@H](O)[C@H](C=C(F)F)NC(=O)OC(C)(C)C)C(C)=C1C3(C)C)[C@]1(OC(C)=O)CO[C@@H]1C[C@@H]2O` (stereo partly drawn) [SB-T-12855-1, 3′-Dephenyl-3′-(2,2-difluorovinyl)-2-debenzoyl-2-(3-methoxybenzoyl)-10-methoxycarbonyldocetaxel], the IC50 in experiment [1] (setting [2]) was 0.5 nM; in the experiment with MCF7 (mammary carcinoma) (setting [3]), 0.078 nM. Also, the “R/S (resistance factor)” value in experiment [1] was determined as 6.4.

As for `COC(=O)O[C@H]1C(=O)[C@@]2(C)C([C@H](OC(=O)c3cccc(F)c3)[C@]3(O)C[C@H](OC(=O)[C@H](O)[C@H](C=C(F)F)NC(=O)OC(C)(C)C)C(C)=C1C3(C)C)[C@]1(OC(C)=O)CO[C@@H]1C[C@@H]2O` (stereo partly drawn) [SB-T-12855-2, 3′-Dephenyl-3′-(2,2-difluorovinyl)-2-debenzoyl-2-(3-fluorobenzoyl)-10-methoxycarbonyldocetaxel], the IC50 in experiment [1] (setting [2]) was found to be 1.85 nM; with MCF7 (mammary carcinoma) (setting [3]), 0.12 nM. The “R/S (resistance factor)” value in experiment [1] is 11.

`COC(=O)O[C@H]1C(=O)[C@@]2(C)C([C@H](OC(=O)c3cccc(N=[N+]=[N-])c3)[C@]3(O)C[C@H](OC(=O)[C@H](O)[C@H](C=C(F)F)NC(=O)OC(C)(C)C)C(C)=C1C3(C)C)[C@]1(OC(C)=O)CO[C@@H]1C[C@@H]2O` (stereo partly drawn) [SB-T-12855-3, 3′-Dephenyl-3′-(2,2-difluorovinyl)-2-debenzoyl-2-(3-azidobenzoyl)-10-methoxycarbonyldocetaxel]: the IC50 turned out to be 0.4 nM in experiment [1] (setting [2]) and 0.076 nM with MCF7 (mammary carcinoma) (setting [3]). The “R/S (resistance factor)” value in experiment [1] worked out at 5.3.

As for `COC(=O)O[C@H]1C(=O)[C@@]2(C)C([C@H](OC(=O)c3cccc(Cl)c3)[C@]3(O)C[C@H](OC(=O)[C@H](O)[C@H](C=C(F)F)NC(=O)OC(C)(C)C)C(C)=C1C3(C)C)[C@]1(OC(C)=O)CO[C@@H]1C[C@@H]2O` (stereo partly drawn) [SB-T-12855-4, 3′-Dephenyl-3′-(2,2-difluorovinyl)-2-debenzoyl-2-(3-chlorobenzoyl)-10-methoxycarbonyldocetaxel], the IC50 in experiment [1] (setting [2]) is 1.15 nM; in the experiment on MCF7 (mammary carcinoma) (setting [3]) it was 0.099 nM. Besides, in experiment [1], the “R/S (resistance factor)” value stood at 12.
